Two compounds from patent US12377176B2, “Cancer diagnostic imaging agents” (Technische Universität München, priority 2019, dated 2025) can be followed below.

“And” between values parts separate entries of the source, which are not always exact repeats. Identical values can stand only once. Marks after values point to notes of the source that are not given here.

The nature of series [1]: In vivo distribution of rhPSMA-7 isomers after rhPSMA7-rac: radio-HPLC and radio-TLC of blood, organ and urine samples. Set-up: species or system mice. As for the experimental part:
In order to quantify the relative uptake of each isomer (rhPSMA-7.1-7.4), a tumor-bearing male CB-17-SCID mouse was injected with the racemic mixture of rhPSMA-7 (180-280 MBq, SA=247-349 GBq/μmol, produced at the Klinikum rechts der Isar in a fully automated procedure). The animal was left under anesthesia for 30 min and sacrificed. Urine, blood, liver, kidneys and tumor were collected and processed to the hereafter described procedures. The urine sample was centrifuged for 5 min at 9000 rpm to yield a clear solution and directly subjected to radio-HPLC analysis. Blood was diluted to 1 mL with H2O and centrifuged twice at 13000 g for 5 min. The supernatant was collected and loaded on a Strata X cartridge (33 μm Polymeric Reversed Phase 500 mg, pre-conditioned with 5 mL MeOH, followed by 5 mL H2O). After washing with 5 mL H2O, the cartridge was eluted with a 6:4 mixture (v/v) of MeCN in H2O, supplemented with 1% TFA. The eluate was diluted with water and analysed by radio-HPLC. Tumour, kidneys and liver were homogenised using either a Potter-Elvehjem tissue grinder (Kontes Glass Co, Vineland, USA) or a MM-400 ball mill (Retsch GmbH, Haan, Germany).
Tumour and kidneys were separately homogenised in the tissue homogeniser with 1 mL of extraction buffer (850 μL 1 M HEPES pH7.4, 100 μL20 mM PMPA and 100 μL 1M NaCl) for 30 min. The resulting homogenate was collected and centrifuged at 13000 g for 5 min. Subsequently the supernatant was collected, centrifuged again (13000 g, 5 min) and loaded on a Strata X cartridge (33 μm Polymeric Reversed Phase 500 mg, pre-conditioned with 5 mL MeOH, followed by 5 mL H2O). After washing with 5 mL H2O, the cartridge was eluted with a 6:4 mixture (v/v) of MeCN in H2O, supplemented with 1% TFA. The eluate of each organ was diluted with water and analysed by radio-HPLC.
The organs (tumour, kidney, liver) were separately homogenised in a 2 mL tube together with 3 grinding balls (3 mm diameter) and 1 mL of extraction buffer (850 μL 1 M HEPES pH7.4, 100 μL 20 mM PMPA and 100 μL 1M NaCl) for 10 min at 30 Hz. The homogenate was centrifuged at 13000 g for 5 min and the supernatant was collected. Subsequently, the pellet was suspended in 1 mL of extraction buffer and homogenized again with the ball mill for 10 min at 30 Hz. After centrifugation (13000 g, 5 min), both supernatants were combined and loaded on a Strata X cartridge (33 μm Polymeric Reversed Phase 500 mg, pre-conditioned with 5 mL MeOH, followed by 5 mL H2O). After washing with 5 mL H2O, the cartridge was eluted with a 6:4 mixture (v/v) of MeCN in H2O, supplemented with 1% TFA. The eluate of each organ was diluted with water and analysed by radio-HPLC. […] Finally the ratios of the individual isomers were determined from the HPLC profiles of the extracted samples and compared to the ratios of the isomers from the quality control of the racemic mixture of rhPSMA-7. The decay corrected extraction- and cartridge loading-efficiency, as well as the overall extracted activity of the examined samples are given in table 2. The cartridge elution-efficiency was >99% for all experiments.
Radio-TLC Analysis was carried out a) on urine samples by directly subjecting a small volume onto a TLC strip, b) by analysis of a small volume of the non-immobilized activity during the SPE process (the ‘breakthrough fraction’), and c) by analysis of a small volume of the cartridge eluates.

The test system of series [2] is LNCaP cells. Nature of the series: Internalization into LNCaP cells, relative to ([125I]I-BA)KuE. In kind it is cell-based. How it is done: Data is corrected for non-specific binding ([…]) and expressed as mean±SD (n=3).
Subsequent to the removal of the culture medium, the cells were washed once with 500 μL DMEM-F12 (5% BSA) and left to equilibrate for at least 15 min at 37° C. in 200 μL DMEM-F12 (5% BSA). Each well was treated with either 25 μL of either DMEM-F12 (5% BSA) or a 100 μM PMPA solution for blockade. Next, 25 μL of the ^68Ga/^18F-labeled PSMA inhibitor (5.0 nM) was added and the cells incubated at 37° C. for 60 min. The experiment was terminated by placing the 24-well plate on ice for 3 min and consecutive removal of the medium. Each well was rinsed with 250 μL HBSS and the fractions from these first two steps combined, representing the amount of free radioligand. Removal of surface bound activity was accomplished by incubation of the cells with 250 μL of ice-cold PMPA (10 μM in PBS) solution for 5 min and rinsed again with another 250 μL of ice-cold PBS. The internalized activity was determined by incubation of the cells in 250 μL 1 M NaOH and the combination with the fraction of a subsequent wash step with 250 μL 1.0 M NaOH. Each experiment (control and bloackde) was performed in triplicate. Free, surface bound and internalized activity was quantified in a γ-counter. […] Data were corrected for non-specific internalization and normalized to the specific-internalization observed for the radioiodinated reference compound.

Series [3] deals with LNCaP tumor-bearing CB-17 SCID mice. The following applies: male, mouse, in vivo, 1 h.
Procedure: To establish tumor xenografts, LNCaP cells (10^7 cells/200 μL) were suspended in a 1:1 mixture (v/v) of Dulbecco modified Eagle medium/Nutrition Mixture F-12 with Glutamax-I (1:1) and Matrigel (BD Biosciences, Germany), and inoculated subcutaneously onto the right shoulder of 6-8 weeks old CB17-SCID mice (Charles River, Sulzfeld, Germany). Mice were used for when tumors had grown to a diameter of 5-8 mm (3-4 weeks after inoculation).
Approximately 1-2 MBq (<0.2 nmol) of the ^18F-labeled PSMA inhibitor was injected into the tail vein of LNCaP tumor-bearing male CB-17 SCID mice and sacrificed after 1 h post injection (n=4-5). Selected organs were removed, weighted and measured in a γ-counter
Setting [4] is: Phosphoimager, Blood, 30 min p.i.
The mark [5] stands for this setting: Phosphoimager, Kidney, 30 min p.i.
The mark [6] stands for this setting: Phosphoimager, Tumor, 30 min p.i.
[7] abbreviates: Phosphoimager, Urine, 30 min p.i., listed as [^18F]rhPSMA7-rac.
Setting [8] is: TLC Scanner, Kidney, tumor bearing mice 30 min p.i., listed as [^18F]rhPSMA7-rac.

In the case of “[^19F][^natGa]D/L-Dap-R/S-DOTAGA-rhPSMA7 [rhPSMA7-rac]”, the Intact tracer in series [1] (setting [4]) was 96.80^ %; in series [1] (setting [5]) it was 96.48^ %; in series [1] (Phosphoimager, Liver, 30 min p.i., listed as [^18F]rhPSMA7-rac), 93.92^# % and 74.15^# %; in series [1] (setting [6]), 96.47^ %; in series [1] (setting [7]) it was 98.55^ % and 95.85^ %; in series [1] (setting [8]), 94.04% and 94.58%. Moreover, in series [1] (TLC Scanner, Urine, tumor bearing mice 30 min p.i., listed as [^18F]rhPSMA7-rac), the Intact tracer was 82.51% and 96.2%. In addition, the “^18F-Fluoride” value in series [1] (setting [4]) is 3.20^ %; in series [1] (setting [5]), 3.52^ %; in series [1] (setting [6]) it was 4.15^ %; in series [1] (setting [7]) it was 1.55^ % and 4.15^ %; in series [1] (setting [8]), 5.96% and 5.42%.
On to `CC(C)(C)[Si](F)(c1ccc(C(=O)NC[C@@H](NC(=O)CC[C@@H](C(=O)O)N2CCN(CC(=O)O)CCN(CC(=O)O)CCN(CC(=O)O)CC2)C(=O)N[C@H](CCCCNC(=O)CCC(=O)NCCC[C@@H](NC(=O)CC[C@H](NC(=O)N[C@@H](CCC(=O)O)C(=O)O)C(=O)O)C(=O)O)C(=O)O)cc1)C(C)(C)C` [rhPSMA7.3, [^19F][^natGa]D-Dap-S-DOTAGA-rhPSMA7, metal not drawn], for which the “internalization rate Mean” value in series [2] (LNCaP cells, 1 h, 37 °C, c=0.5 nM, mean) is 161.41 % of [^125I]IB-KuE. The individual internalization rates in series [2] (LNCaP cells, 1 h, 37 °C, c=0.5 nM, single measurements) is 156.6 % of [^125I]IB-KuE and 156.0 % of [^125I]IB-KuE and 171.7 % of [^125I]IB-KuE. In series [2] (mean ± SD as quoted in the discussion), the internalization is 161.41%±8.88. In series [3], this compound registered a Biodistribution adrenals of 2.2 ± 0.83 % ID/g, a Biodistribution blood of 0.96 ± 0.24 % ID/g, a Biodistribution bone of 0.38 ± 0.32 % ID/g and a Biodistribution heart of 0.87 ± 0.17 % ID/g. In series [3], this compound had a Biodistribution intestine of 0.35 ± 0.07 % ID/g, a Biodistribution kidneys of 292 ± 45.1 % ID/g, a Biodistribution liver of 0.69 ± 0.13 % ID/g and a Biodistribution lung of 2.2 ± 0.35 % ID/g. In series [3], this compound showed a Biodistribution muscle of 0.33 ± 0.15 % ID/g, a Biodistribution pancreas of 0.63 ± 0.44 % ID/g, a Biodistribution spleen of 16.6 ± 2.6 % ID/g and a Biodistribution stomach of 0.44 ± 0.23 % ID/g. The compound also had a Biodistribution tumor in series [3] of 18.3 ± 7.2 % ID/g.
